Key:
MOLM-13 cells [1] = test: Comparative study cell viability, Molm-13 cells (CTG2, 3 days); format: cell-based; details: Homo sapiens, 72 h, read-out: reduced cell viability IC50
Description: (§1) Molm-13 and MV-4-11 cells (both leukemia cell lines) were cultured in RPMI 1640 media supplemented with 10% fetal bovine serum, streptomycin and penicillin, and were plated in white walled 96-well plates at 20,000 cells/well. THLE-2 cells (T-antigen immortalized human liver epithelial cells) were cultured using BEGM Bullet kit (Lonza CC-3170) supplemented with 10% fetal bovine serum, streptomycin and penicillin, and were plated in white walled 96-well plates 5000 cells/well. NHLF (normal human lung fibroblast) cells were cultured in DMEM media supplemented with 10% fetal bovine serum, streptomycin and penicillin, and were plated in white walled 96-well plates at 5000 cells/well. Cells were incubated in DMSO (control) or the indicated compounds for 3 days at 37° C. and 5% CO2. Following the incubation period, 100 μL of CellTiterGlow2 (CTG2) reagent (CellTiter-Glo®2 Luminescent Cell Viability Assay, Promega (Madison, Wis.)) was added to each well. Following a 10 minutes incubation with shaking, luminescence was measured using the Victor Wallac Luminometer or the Envision 2105 multimode plate reader.

IKAROS = target: T1, IKAROS (Homo sapiens, UniProt Q13422+Q96SW2); test: Western blot IKAROS degradation assay in MV-4-11 cells; format: cell-based; details: 6-8 hours
T1 construct: endogenous in cells; host or cells: MV-4-11
Description: (§2) MV-4-11 cells were grown in RPMI 1640 media supplemented with 10% fetal bovine serum, streptomycin and penicillin.
(§3) Cells were cultured at approximately 10^6 cells per mL and incubated in DMSO or the indicated compound for 6-8 hours. Whole cell extracts were prepared using RIPA buffer according to manufacturer's protocol (Pierce). Briefly, 3×10^6 cells were washed once in PBS, the cell pellets were resuspended in RIPA buffer and allowed to incubate for 15 minutes on ice. Cells debris was removed by centrifugation and the cleared whole cell lysates were transferred to new tubes for further analysis.
(§4) For Western blot analysis, whole cell protein extracts were separated on 4-12% SDS-polyacrylamide gels, transferred to nitrocellulose and probed with the indicated primary antibodies. Membranes were subsequently washed and probed with the appropriate IRDye secondary antibodies (LI-COR). The signal was detected using the Odyssey Imaging System (LI-COR).
(§5) The following antibodies were used in these studies: Anti-eRF3/GSPT1: Abcam, ab126090 (Cambridge, Mass.); Anti-Ikaros: Abcam, ab191394 (Cambridge, Mass.); Anti-CK1α: Abcam, ab108296 (Cambridge, Mass.); β-actin (8H10D10) mouse monoclonal antibody: Cell Signaling Technology, #3700 (Danvers, Mass.); IRDye 680RD Goat anti-rabbit antibody: LI-COR, 926-68071 (Lincoln, Nebr.); IRDye 800CW Goat anti-mouse antibody: LI-COR, 926-32210 (Lincoln, Nebr.).
(§6) In each of Tables 1-3, the % degradation values are reported as “A”, “B”, “C”, or “D.” “A” represents a % degradation value of less than 25% (value<25%); “B” represents a % degradation value of equal to or more than 25% and less than 50% (25%≤value<50%); “C” represents a % degradation value of equal to or more than 50% and less than 75% (50%≤value<75%); and “D” represents a % degradation value of equal to or more than 75% (value≥75%).

CK1α = target: T2, CK1α (Homo sapiens, UniProt P48729+Q96SW2); test: Western blot CK1α degradation assay in MV-4-11 cells; format: cell-based; details: 6-8 hours
T2 construct: endogenous in cells; host or cells: MV-4-11
Description: as §2, §3, §4, §5, §6

MV-4-11 cells = test: Comparative study cell viability, MV-4-11 cells (CTG2, 3 days); format: cell-based; details: for IC50: Homo sapiens, MV4-11, 72 h, 3 days, read-out: reduced cell viability IC50; for IC50 concentration as fold of the IC50 concentration of Compound 1: relative to Compound 1
Description: as §1

PBMCs = test: Comparative study cell viability, LPS-induced PBMCs (CTG); format: cell-based; details: PBMC, LPS 18-24 hr, read-out: reduced cell viability IC50
Description: Frozen […] blood mononuclear cells (PBMCs) were purchased from AllCells. Cells were quick thawed, washed with RPMI-1640/10% FBS/1% Penicillin/1% Streptomycin and plated in 96 well plates at 200,000 cells/well. Cells were pretreated with DMSO or the indicated compound for 1 hr and then induced with 100 ng/mL lipopolysaccharide (LPS) for 18-24 hr. Following the incubation period, 100 μL of CTG reagent was added to each well. Plates were incubated on the shaker at RT for 2 min. Following a 10 min incubation without shaking, luminescence was measured using the Envision 2105 multimode plate reader.

NHLF cells = test: Comparative study cell viability, NHLF cells (CTG2, 3 days); format: cell-based; details: Homo sapiens, 72 h, read-out: reduced cell viability IC50
Description: as §1

THLE-2 cells = test: Comparative study cell viability, THLE-2 cells (CTG2, 3 days); format: cell-based, human; details: for IC50: Homo sapiens, 72 h, 3 days, read-out: reduced cell viability IC50; for IC50 concentration as fold of the IC50 concentration of Compound 1: relative to Compound 1
Description: as §1

MOLM-13 cells [2] = test: MOLM-13 cell viability assay (CellTiter-Glo 2, 3 days, 2500 cells/well); format: cell-based; details: Homo sapiens, MOLM-13, 72 h, percentage of DMSO control
Description: MOLM-13 cells were cultured in RPMI 1640 media supplemented with 10% fetal bovine serum, streptomycin and penicillin, and were plated in white walled 96-well plates at 2500 cells/well. Cells were incubated in DMSO (control) or the indicated compound for 3 days at 37° C. and 5% CO2. Following the incubation period, 100 μL of CellTiterGlow2 (CTG2) reagent (CellTiter-Glo®2 Luminescent Cell Viability Assay, Promega (Madison, Wis.)) was added to each well. Following a 10 minutes incubation with shaking, luminescence was measured using the EnVision Multimode plate reader.
The MOLM-13 cell viability values, measured as percentages of the DMSO control, are reported in Table 8 as “A”, “B”, “C”, or “D.” “A” represents a % viability value of less than 40% (value<40%). “B” represents a % viability value of equal to or more than 40% and less than 60% (40%≤value<60%). “C” represents a % viability value of equal to or more than 60% and less than 90% (60%≤value<90%). “D” represents a % viability value of equal or more than 90% (value≥90%).

GSPT1 = target: T3, GSPT1 (Homo sapiens, UniProt P15170+Q96SW2); test: Western blot GSPT1 degradation assay in MV-4-11 cells; format: cell-based; details: for reduced levels of GSPT1: comparative study; for GSPT1 % Degradation at 1 μM: MV-4-11 cells, 6-8 hours
T3 construct: whole cell protein extracts were separated on 4-12% SDS-polyacrylamide gels; endogenous in cells; host or cells: MV-4-11
Description: as §2, §3, §4, §5, §6

IL-1β = IL-1β inhibition assay, LPS-induced PBMCs or CD14+ monocytes, Meso Scale; format: cell-based; details: 100 ng/mL LPS 18-24 h
Description: (§7) Either frozen primary blood mononuclear cells (PBMCs) or frozen CD14+ mobilized peripheral blood monocytes were purchased from AllCells (PB003F, Normal Peripheral Blood MNC (Alameda, Calif.)). Cells were quick thawed, washed 1-time with RPMI-1640 (10% FBS/1% Pen-Strep) and plated in 96 well plates at 200,000 cells per well. Cells were pretreated with DMSO only or with the indicated compound for 1 h and then induced with 100 ng/mL lipopolysaccharide (LPS) for 18-24 h. The supernatant was analyzed for IL-1β, IL-6, and TNFα, using Meso Scale assay according to manufacturer's protocol. The negative control wells were treated with DMSO.

IL-2 = IL-2 fold-change assay, anti-CD3 stimulated PBMCs, Mesoscale; format: cell-based; details: Homo sapiens, PBMC, 24 h, fold difference from the DMSO control
Description: For the IL-2 analysis, 96 well plates were precoated with 1 μg/mL anti-human CD3 antibody (OKT3, eBioscience Inc., San Diego, Calif.). After washing with PBS, the indicated compound was added (50 μL/well) followed by PBMCs diluted at 3-4 million cells/mL (150 μL/well). Plates were incubated for 24 h and the supernatants collected for Mesoscale IL-2 analysis. IL-2 activity is measured as fold difference from the DMSO control.
In Table 7, the fold-change values are reported as “A”, “B”, “C”, or “D”. “A” represents a fold-change value of equal to or less than 1 (value≤1); “B” represents a fold-change value of more than 1 and equal to or less than 2 (1<value≤2); “C” represents a fold-change value of more than 2 and equal to or less than 3 (2<value≤3); and “D” represents a fold-change value of more than 3 (value>3).

TNFα = test: TNF-α inhibition assay, LPS-induced PBMCs or CD14+ monocytes, Meso Scale; format: cell-based; details: 100 ng/mL LPS 18-24 h
Description: as §7

T2 sequence (P48729 whole entry): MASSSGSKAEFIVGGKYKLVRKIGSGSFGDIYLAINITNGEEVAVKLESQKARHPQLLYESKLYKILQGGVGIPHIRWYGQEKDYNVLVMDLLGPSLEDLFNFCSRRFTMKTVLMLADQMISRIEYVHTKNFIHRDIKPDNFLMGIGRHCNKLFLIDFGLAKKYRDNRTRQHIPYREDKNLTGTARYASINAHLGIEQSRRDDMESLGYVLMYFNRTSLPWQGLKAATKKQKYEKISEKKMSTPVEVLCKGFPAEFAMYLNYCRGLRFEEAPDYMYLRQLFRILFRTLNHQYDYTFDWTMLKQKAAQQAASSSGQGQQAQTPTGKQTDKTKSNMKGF
T2 sequence (Q96SW2 whole entry): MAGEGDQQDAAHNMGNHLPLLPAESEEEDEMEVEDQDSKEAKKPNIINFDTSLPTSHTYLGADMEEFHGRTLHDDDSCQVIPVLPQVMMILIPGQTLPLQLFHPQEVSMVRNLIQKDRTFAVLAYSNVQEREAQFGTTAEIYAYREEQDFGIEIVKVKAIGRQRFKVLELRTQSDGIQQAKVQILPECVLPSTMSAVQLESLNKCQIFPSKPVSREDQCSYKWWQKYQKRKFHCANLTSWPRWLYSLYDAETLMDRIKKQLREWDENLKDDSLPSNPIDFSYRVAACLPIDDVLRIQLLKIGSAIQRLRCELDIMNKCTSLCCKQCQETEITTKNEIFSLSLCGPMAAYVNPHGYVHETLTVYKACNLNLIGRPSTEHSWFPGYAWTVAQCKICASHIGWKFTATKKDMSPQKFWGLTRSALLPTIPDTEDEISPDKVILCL
T2 sequence (Q16531 whole entry partner): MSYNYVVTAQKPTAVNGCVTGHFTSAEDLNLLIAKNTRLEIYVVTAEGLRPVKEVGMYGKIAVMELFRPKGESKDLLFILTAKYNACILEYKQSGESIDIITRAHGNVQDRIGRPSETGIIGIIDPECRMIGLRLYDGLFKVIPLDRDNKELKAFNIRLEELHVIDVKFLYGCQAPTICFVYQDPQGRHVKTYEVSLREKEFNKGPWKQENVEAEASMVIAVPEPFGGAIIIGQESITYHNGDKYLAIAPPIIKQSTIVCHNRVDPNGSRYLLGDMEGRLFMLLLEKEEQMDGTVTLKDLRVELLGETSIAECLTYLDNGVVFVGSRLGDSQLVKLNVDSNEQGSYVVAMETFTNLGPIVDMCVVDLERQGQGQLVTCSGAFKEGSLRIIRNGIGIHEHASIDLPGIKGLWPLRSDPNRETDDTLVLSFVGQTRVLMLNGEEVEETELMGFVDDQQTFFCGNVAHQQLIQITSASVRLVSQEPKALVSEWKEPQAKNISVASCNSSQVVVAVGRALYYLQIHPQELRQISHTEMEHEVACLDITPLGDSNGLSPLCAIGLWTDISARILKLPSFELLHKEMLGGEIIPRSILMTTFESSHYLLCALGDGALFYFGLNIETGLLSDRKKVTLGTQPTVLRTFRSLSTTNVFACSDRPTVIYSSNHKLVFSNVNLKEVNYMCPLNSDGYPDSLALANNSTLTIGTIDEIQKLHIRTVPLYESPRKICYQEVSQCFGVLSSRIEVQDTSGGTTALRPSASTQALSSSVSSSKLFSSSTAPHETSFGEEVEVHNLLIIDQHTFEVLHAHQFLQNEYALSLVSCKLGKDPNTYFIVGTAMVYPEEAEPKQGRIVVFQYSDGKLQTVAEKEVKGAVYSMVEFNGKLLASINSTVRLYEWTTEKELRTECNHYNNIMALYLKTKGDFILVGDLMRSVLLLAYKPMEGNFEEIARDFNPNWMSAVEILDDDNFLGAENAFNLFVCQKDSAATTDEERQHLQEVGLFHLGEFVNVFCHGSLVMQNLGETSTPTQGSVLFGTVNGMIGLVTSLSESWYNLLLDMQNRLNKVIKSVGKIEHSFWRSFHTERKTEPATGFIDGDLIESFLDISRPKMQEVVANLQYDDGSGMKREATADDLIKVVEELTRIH
T3 sequence (P15170 whole entry): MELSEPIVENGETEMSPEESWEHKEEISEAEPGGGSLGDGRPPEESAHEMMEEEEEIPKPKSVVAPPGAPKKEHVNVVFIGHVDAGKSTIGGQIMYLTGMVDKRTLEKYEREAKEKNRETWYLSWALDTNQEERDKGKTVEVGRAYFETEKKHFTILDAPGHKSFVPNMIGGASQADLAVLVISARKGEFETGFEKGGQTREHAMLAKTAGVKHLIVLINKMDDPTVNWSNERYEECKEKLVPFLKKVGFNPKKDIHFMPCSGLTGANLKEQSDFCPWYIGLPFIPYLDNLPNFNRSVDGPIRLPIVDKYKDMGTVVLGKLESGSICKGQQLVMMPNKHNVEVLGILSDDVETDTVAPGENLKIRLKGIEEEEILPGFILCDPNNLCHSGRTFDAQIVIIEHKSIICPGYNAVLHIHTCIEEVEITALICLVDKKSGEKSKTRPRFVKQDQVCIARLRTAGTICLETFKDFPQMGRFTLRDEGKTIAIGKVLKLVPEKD
T3 sequence (Q96SW2 whole entry): as the sequence (Q96SW2 whole entry) above
T3 sequence (Q16531 whole entry partner): as the sequence (Q16531 whole entry partner) above
T1 sequence (Q13422 whole entry): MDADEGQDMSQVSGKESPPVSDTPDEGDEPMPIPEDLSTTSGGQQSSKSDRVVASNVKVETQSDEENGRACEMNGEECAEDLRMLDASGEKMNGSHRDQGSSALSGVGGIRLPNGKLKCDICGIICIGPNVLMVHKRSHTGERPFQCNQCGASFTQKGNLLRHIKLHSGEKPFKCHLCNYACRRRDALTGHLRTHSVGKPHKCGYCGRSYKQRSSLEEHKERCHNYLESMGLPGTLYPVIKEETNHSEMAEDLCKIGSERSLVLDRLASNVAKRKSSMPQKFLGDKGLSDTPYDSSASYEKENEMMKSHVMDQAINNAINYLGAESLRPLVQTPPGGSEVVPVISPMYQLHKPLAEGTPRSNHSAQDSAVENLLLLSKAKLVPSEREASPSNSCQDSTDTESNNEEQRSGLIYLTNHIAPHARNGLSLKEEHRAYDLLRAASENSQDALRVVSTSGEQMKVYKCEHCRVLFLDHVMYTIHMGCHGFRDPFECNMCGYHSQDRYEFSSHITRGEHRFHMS
T1 sequence (Q96SW2 whole entry): as the sequence (Q96SW2 whole entry) above
T1 sequence (Q16531 whole entry partner): as the sequence (Q16531 whole entry partner) above

Row | SMILES | IC50 (MOLM-13 cells [1]) [nM] | IKAROS % Degradation at 1 μM (IKAROS) | CK1α % Degradation at 1 μM (CK1α) | IC50 (MV-4-11 cells) [nM] | IC50 (PBMCs) [nM] | IC50 (NHLF cells) [nM] | IC50 (THLE-2 cells) [nM] | viability at 1 µM (MOLM-13 cells [2]) [%] | reduced levels of GSPT1 (GSPT1; 0.1 μM) [%] | GSPT1 % Degradation at 1 μM (GSPT1; 1 μM) | reduced levels of GSPT1 (GSPT1; 1 μM) [%] | IC50 concentration as fold of the IC50 concentration of Compound 1 (MV-4-11 cells) | IC50 concentration as fold of the IC50 concentration of Compound 1 (THLE-2 cells) | inhibition at 1 µM (IL-1β) [%] | fold induction at 1 µM (IL-2) | inhibition at 1 µM (TNFα) [%]
1 | Cc1ccc(NCC(=O)NCc2ccc3c(c2)CN(C2CCC(=O)NC2=O)C3=O)cc1Cl (centres unmarked) [Compound 1, 2-((3-Chloro-4-methylphenyl)amino)-N-((2-(2,6-dioxopiperidin-3-yl)-1-oxoisoindolin-5-yl)methyl)acetamide] | 74.8 | D (a % degradation value of equal to or more than 75% (value≥75%)) | B (a % degradation value of equal to or more than 25% and less than 50% (25%≤value<50%)) | 19.6 | > 10000 | > 10000 | > 10000 | > 90 | 92 | D (a % degradation value of equal to or more than 75% (value≥75%)) | 93 | – | – | – | – | –
2 | CC(C)(C)c1ccc(NCC(=O)NCc2ccc3c(c2)CN(C2CCC(=O)NC2=O)C3=O)cc1 (centres unmarked) [Compound 17, 2-((4-(tert-butyl)phenyl)amino)-N-((2-(2,6-dioxopiperidin-3-yl)-1-oxoisoindolin-5-yl)methyl)acetamide] | – | C (a % degradation value of equal to or more than 50% and less than 75% (50%≤value<75%)) | C (a % degradation value of equal to or more than 50% and less than 75% (50%≤value<75%)) | – | – | – | – | 60 to 90 | – | D (a % degradation value of equal to or more than 75% (value≥75%)) | – | about 1 fold | about 1.5 fold | – | – | –
3 | Cc1ccc(NCC(=O)NCc2ccc3c(c2)CN(C2CCC(=O)NC2=O)C3=O)cc1N(C)C (centres unmarked) [Compound 18, 2-((3-(dimethylamino)-4-methylphenyl)amino)-N-((2-(2,6-dioxopiperidin-3-yl)-1-oxoisoindolin-5-yl)methyl)acetamide] | – | – | B (a % degradation value of equal to or more than 25% and less than 50% (25%≤value<50%)) | – | – | – | – | > 90 | – | D (a % degradation value of equal to or more than 75% (value≥75%)) | – | about 0.5 fold | about 1 fold | 30 to 50 | ≤ 1 | 30 to 50
4 | Cc1ccc(NC(=O)NCc2ccc3c(c2)CN(C2CCC(=O)NC2=O)C3=O)cc1Cl (centres unmarked) [Compound A, reference compound] | 0.65 | – | – | 1.87 | 6 | 31.7 | 6.11 | – | 82 | – | 98 | – | – | – | – | –

From patent publication US11400084B2 (BioTheryX, Inc., priority 2018, dated 2022)
